Measurements taken from US20100099614A1, “Antimicrobial Peptides and Methods of Use” (priority 2008, published 2010).
≈ marks a conversion by molar mass, not a printed value. Entries after “also recorded” stand apart in the source; their conditions may differ. Square brackets hold non-standard residues; d marks the D form. Ends that are not written are not given here. Peptide text beside a SMILES is read from it.

What was measured:
[1] = system: human erythrocytes; test: Hemolytic activity (MHC), Protocol A; format: cell-based
Experimental: Hemoglobin release was determined spectrophotometrically at 562 nm.
In some experiments the hemolytic titer was determined as the highest 2-fold dilution of peptide that caused hemoglobin release.

[2] = system: Gram-negative bacteria; test: Antibacterial activity (MIC), microtiter dilution; format: cell-based; conditions: for MIC: against Gram-negative bacteria
Experimental: MICs were determined by a standard microtiter dilution method in Mueller Hinton Broth (MHB). Serial dilutions of the 10× compound were added to the microtiter plates in a volume of 10 μL followed by 90 μL of bacteria for an inoculum of 5×10^5 colony-forming units (CFU)/mL. The plates were incubated at 37° C. for 24 h, and the MICs were determined as the lowest peptide concentration that inhibited growth. […]
Alternatively; minimal inhibitory concentrations were determined using a standard microtiter dilution method in a Mueller-Hinton (MH) medium. Briefly, cells were grown overnight at 37° C. in MH broth and diluted in the same medium. Serial dilutions of the peptides were added to the microtiter plates in a volume of 100 μl followed by 10 μl of bacteria for an initial cell concentration of 1×10^5 CFU/ml. Plates were incubated at 37° C. for 24 hours and MICs determined as the lowest peptide concentration that inhibited growth.

[3] = system: Gram-positive bacteria; conditions: gram-positive bacteria, geometric mean MIC
[4] = Peptide hydrophobicity by RP-HPLC retention; format: physicochemical; conditions: 80° C.; for change in hydrophobicity (RP-HPLC retention) relative to PVL: polar face substitution
Experimental: Peptide Synthesis and Purification—Syntheses of the peptides were carried out by solid-phase peptide synthesis using t-butyloxycarbonyl chemistry and MBHA (4-methylbenzhydrylamine) resin (0.97 mmol/g), followed by cleavage of the peptide from the resin as described previously (117-119). However, it is understood in the art that there are other suitable instruments and methods for automated or manual peptide synthesis that could be employed to produce the peptides described herein. Peptide purification was performed by reversed-phase high-performance liquid chromatography (RP-HPLC) on a Zorbax 300 SB-C8 column (250×9.4 mm I.D.; 6.5 μm particle size, 300 Å pore size; Agilent Technologies, Little Falls, Del.) with a linear AB gradient (0.1% acetonitrile/min) at a flow rate of 2 mL/min, where eluent A was 0.2% aqueous trifluoroacetic acid (TFA), pH 2, and eluent B was 0.2% TFA in acetonitrile, where the shallow 0.1% acetonitrile/min gradient started 12% below the acetonitrile concentration required to elute the peptide on injection of analytical sample using a gradient of 1% acetonitrile/min (113). The purity of the peptides was verified by analytical RP-HPLC as described below and further characterized by mass spectrometry and amino acid analysis. Crude and purified peptides were analyzed on an Agilent 1100 series liquid chromatograph. Runs were performed on a Zorbax 300 SB-C8 column (150×2.1 mm I.D.; 5 μm particle size, 300 Å pore size) from Agilent Technologies using a linear AB gradient (1% acetonitrile/min) and a flow rate of 0.25 mL/min, where eluent A was 0.2% aqueous TFA, pH 2, and eluent B was 0.2% TFA in acetonitrile.
Analytical RP-HPLC of Peptides—Peptides were analyzed on an Agilent 1100 series liquid chromatograph (Little Falls, Del.). Runs were performed on a Zorbax 300 SB-C8 column (150×2.1 mm I.D.; 5 μm particle size, 300 Å pore size) from Agilent Technologies using linear AB gradient (1% acetonitrile/min) and a flow rate of 0.25 ml/min, where solvent A was 0.05% aqueous TFA, pH 2 and solvent B was 0.05% TFA in acetonitrile. Temperature profiling analyses were performed in 3° C. increments, from 5° C. to 80° C.

Compound: CC[C@H](C)[C@H](NC(=O)[C@H](C)NC(=O)[C@H](CCCCN)NC(=O)[C@H](CC(C)C)NC(=O)[C@H](C)NC(=O)[C@@H](NC(=O)[C@H](Cc1c[nH]cn1)NC(=O)[C@H](CC(C)C)NC(=O)[C@@H](NC(=O)[C@@H](NC(=O)[C@H](CCCCN)NC(=O)[C@@H](C)NC(=O)[C@H](C)NC(=O)[C@H](CO)NC(=O)[C@H](CCCCN)NC(=O)[C@H](Cc1ccccc1)NC(=O)[C@@H](NC(=O)[C@H](CCCCN)NC(=O)[C@H](CC(C)C)NC(=O)[C@H](Cc1ccccc1)NC(=O)[C@H](CO)NC(=O)[C@H](CCCCN)NC(=O)[C@H](Cc1c[nH]c2ccccc12)NC(=O)[C@H](CCCCN)NC(C)=O)[C@@H](C)O)[C@@H](C)O)C(C)C)[C@@H](C)O)C(=O)N[C@@H](CO)C(=O)N[C@@H](CO)C(N)=O [NAD] (HELM PEPTIDE1{[ac].K.W.K.S.F.L.K.T.F.K.S.A.[dA].K.T.V.L.H.T.A.L.K.A.I.S.S.[am]}$$$$V2.0)
- fold decrease in hemolytic activity relative to L-diastereomer [1]: 8 fold
- minimal hemolytic concentration (MHC) ([1]; red cells of human, 12 h): 250 µg/mL

Compound: CC[C@H](C)[C@H](NC(=O)[C@H](C)NC(=O)[C@H](CCCCN)NC(=O)[C@H](CC(C)C)NC(=O)[C@H](C)NC(=O)[C@@H](NC(=O)[C@H](Cc1cnc[nH]1)NC(=O)[C@H](CC(C)C)NC(=O)[C@@H](NC(=O)[C@@H](NC(=O)[C@H](CCCCN)NC(=O)[C@H](CCCCN)NC(=O)[C@H](C)NC(=O)[C@H](CO)NC(=O)[C@H](CCCCN)NC(=O)[C@H](Cc1ccccc1)NC(=O)[C@@H](NC(=O)[C@H](CCCCN)NC(=O)[C@H](CC(C)C)NC(=O)[C@H](Cc1ccccc1)NC(=O)[C@H](CO)NC(=O)[C@H](CCCCN)NC(=O)[C@H](Cc1c[nH]c2ccccc12)NC(=O)[C@H](CCCCN)NC(C)=O)[C@@H](C)O)[C@@H](C)O)C(C)C)[C@@H](C)O)C(=O)N[C@@H](CO)C(=O)N[C@@H](CO)C(N)=O [NKL]
- fold decrease in hemolytic activity relative to V681 [1]: > 32 fold
- minimal hemolytic concentration (MHC) ([1]; human erythrocytes): undetectable level; also recorded: no detectable hemolytic activity
- MIC [2]: 3.1 µg/mL (≈ 1.04 µM)

Compound: CC[C@H](C)[C@H](NC(=O)[C@H](C)NC(=O)[C@H](CCCCN)NC(=O)[C@H](CC(C)C)NC(=O)[C@H](C)NC(=O)[C@@H](NC(=O)[C@H](Cc1c[nH]cn1)NC(=O)[C@H](CC(C)C)NC(=O)[C@@H](NC(=O)[C@@H](NC(=O)[C@H](CCCCN)NC(=O)[C@@H](NC(=O)[C@H](C)NC(=O)[C@@H](CO)NC(=O)[C@H](CCCCN)NC(=O)[C@H](Cc1ccccc1)NC(=O)[C@@H](NC(=O)[C@H](CCCCN)NC(=O)[C@H](CC(C)C)NC(=O)[C@H](Cc1ccccc1)NC(=O)[C@H](CO)NC(=O)[C@H](CCCCN)NC(=O)[C@H](Cc1c[nH]c2ccccc12)NC(=O)[C@H](CCCCN)NC(C)=O)[C@@H](C)O)C(C)C)[C@@H](C)O)C(C)C)[C@@H](C)O)C(=O)N[C@@H](CO)C(=O)N[C@@H](CO)C(N)=O [PSD] (HELM PEPTIDE1{[ac].K.W.K.S.F.L.K.T.F.K.[dS].A.V.K.T.V.L.H.T.A.L.K.A.I.S.S.[am]}$$$$V2.0; N-terminus and C-terminus assumed)
- improvement in antimicrobial activity compared to V681 [3]: 2.7 fold

Compound: CC[C@H](C)[C@H](NC(=O)[C@H](C)NC(=O)[C@H](CCCCN)NC(=O)[C@H](CC(C)C)NC(=O)[C@H](C)NC(=O)[C@@H](NC(=O)[C@H](Cc1c[nH]cn1)NC(=O)[C@H](CC(C)C)NC(=O)[C@@H](NC(=O)[C@@H](NC(=O)[C@H](CCCCN)NC(=O)[C@@H](NC(=O)[C@H](C)NC(=O)[C@H](NC(=O)[C@H](CCCCN)NC(=O)[C@H](Cc1ccccc1)NC(=O)[C@@H](NC(=O)[C@H](CCCCN)NC(=O)[C@H](CC(C)C)NC(=O)[C@H](Cc1ccccc1)NC(=O)[C@H](CO)NC(=O)[C@H](CCCCN)NC(=O)[C@H](Cc1c[nH]c2ccccc12)NC(=O)[C@H](CCCCN)NC(C)=O)[C@@H](C)O)C(C)C)C(C)C)[C@@H](C)O)C(C)C)[C@@H](C)O)C(=O)N[C@@H](CO)C(=O)N[C@@H](CO)C(N)=O [PVD] (HELM PEPTIDE1{[ac].K.W.K.S.F.L.K.T.F.K.[dV].A.V.K.T.V.L.H.T.A.L.K.A.I.S.S.[am]}$$$$V2.0)
- fold decrease in hemolytic activity relative to L-diastereomer [1]: 16 fold
- minimal hemolytic concentration (MHC) ([1]; red cells of human, 12 h): 125 µg/mL

Compound: Ac-KWKSFLKTFKSAAKTVLHTALKAISS-NH2 [NAL]
- minimal hemolytic concentration (MHC) ([1]; red cells of human, 12 h): 31.2 µg/mL

Compound: Ac-KWKSFLKTFKSALKTVLHTALKAISS-NH2 [NLL]
- minimal hemolytic concentration (MHC) ([1]; red cells of human, 12 h): 7.8 µg/mL
- MIC [2]: 12.7 µg/mL

Compound: Ac-KWKSFLKTFKVAVKTVLHTALKAISS-NH2 [PVL]
- minimal hemolytic concentration (MHC) ([1]; red cells of human, 12 h): 7.8 µg/mL

Compound: NSL: V681 analog, L-Ser at position 13 (non-polar face) (KWKSFLKTFKSASKTVLHTALKAISS)
- change in hydrophobicity (RP-HPLC retention) relative to NVL ([4]; non-polar face substitution): -8.21 min

Compound: PAL: V681 analog, L-Ala at position 11 (polar face) (KWKSFLKTFKAAVKTVLHTALKAISS)
- change in hydrophobicity (RP-HPLC retention) relative to PVL [4]: +0.45 min

Compound: PKD: V681 analog, D-Lys at position 11 (KWKSFLKTFK[dK]AVKTVLHTALKAISS-NH2)
- improvement on the average MIC value compared to V681 ([2]; geometric mean of 6 gram-negative strains): 3.4 fold

Compound: PKL: V681 analog, L-Lys at position 11 (polar face) (KWKSFLKTFKKAVKTVLHTALKAISS)
- change in hydrophobicity (RP-HPLC retention) relative to PVL [4]: -2.29 min
